The values that follow come from patent US4211866A, “Acyl derivatives of 2-[3-(2-chloroethyl)-3-nitrosoureido]-2-deoxy-D-glucopyranose” (Nippon Shinyaku Co., Ltd., priority 1977, dated 1980).

Data set [1] relates to mouse lymphatic leukemia P-388. The data set is described as follows: Antileukemic activity against Leukemia P-388 in mice. The conditions noted are these: intraperitoneal, every 24 hours, 9 doses; for Median survival time: control 10.2 days; for Increase of Life Span: vs control. In kind it is in vivo, mouse (SLC-BDF1, male). The procedure: The antitumor activity and acute toxicity of the acyl derivatives of 2-[3-(2-chloroethyl)-3-nitrosoureido]-2-deoxy-D-glucopyranose according to this invention can be conveniently observed in recognized animal models. 1,000,000 cells of mouse lymphatic leukemia P-388 were intraperitoneally transplanted into each mouse (SLC-BDF1, male, 18 g.congruent.1 g, 5 weeks old). After 24 hours and thereafter at intervals of 24 hours, a predetermined amount of an acyl derivative of 2-[3-(2-chloroethyl)-3-nitro-soureido]-2-deoxy-D-glucopyramose was intraperitoneally administered for a total of 9 doses. The mice were reared under observation.

The nature of the next data set: Acute toxicities in mice. Format: in vivo. The conditions noted are these: mice (male, ddy), intraperitoneal single dose, 7 days survival. An excerpt: Acute toxicities in mice (male, ddy).
*Intraperitoneal administration of a single dose, 7 days survival.

A word on the LD50: it is the dose at which mortality reaches 50%. Read a high LD50 as a less toxic substance. For “2-[3-(2-chloroethyl)-3-nitrosoureido]-2-deoxy-D-glucopyranose dipalmitate”, the Median survival time in data set [1] (0.125 mg/Kg/dose) was 16.5 days; in data set [1] (0.25 mg/Kg/dose), 17.8 days; in data set [1] (0.5 mg/Kg/dose), 19.3 days; in data set [1] (1.0 mg/Kg/dose), 21.0 days. For the same compound, the “Increase of Life Span” value amounted to 61.8% in data set [1] (0.125 mg/Kg/dose), 74.5% in data set [1] (0.25 mg/Kg/dose), 89.2% in data set [1] (0.5 mg/Kg/dose) and 105.9% in data set [1] (1.0 mg/Kg/dose). This compound also yielded an LD50 in the data set “Acute toxicities in mice” above 800 mg/kg.

As to “2-[3-(2-chloroethyl)-3-nitrosoureido]-2-deoxy-D-glucopyranose monopalmitate”, the Median survival time in data set [1] (0.125 mg/Kg/dose) is given as 14.8 days; in data set [1] (0.25 mg/Kg/dose), 15.5 days; in data set [1] (0.5 mg/Kg/dose), 16.3 days; in data set [1] (1.0 mg/Kg/dose), 17.5 days. Also, the “Increase of Life Span” value in data set [1] (0.125 mg/Kg/dose) worked out at 45.1%; in data set [1] (0.25 mg/Kg/dose) it was 52.0%; in data set [1] (0.5 mg/Kg/dose), 59.8%; in data set [1] (1.0 mg/Kg/dose), 71.6%. The same compound had a 50% lethal dose (LD50) in the data set “Acute toxicities in mice” of 162.5 mg/kg.

“2-[3-(2-chloroethyl-3-nitrosoureidol]-2-deoxy-D-glucopyranose tripalmitate” came in with an LD50 in the data set “Acute toxicities in mice” above 800 mg/kg.

As for `O=NN(CCCl)C(=O)N[C@H]1C(O)O[C@H](CO)[C@@H](O)[C@@H]1O` (stereo partly drawn) [Chlorozotocin, 2-[3-(2-Chloroethyl)-3-nitrosoureido]-2-deoxy-D-glucopyranose], the Median survival time stood at 12.3 days in data set [1] (0.125 mg/Kg/dose), 14.5 days in data set [1] (0.25 mg/Kg/dose), 16.3 days in data set [1] (0.5 mg/Kg/dose) and 18.8 days in data set [1] (1.0 mg/Kg/dose). Moreover, the “Increase of Life Span” value in data set [1] (0.125 mg/Kg/dose) is reported as 20.6%; in data set [1] (0.25 mg/Kg/dose) it was 42.2%; in data set [1] (0.5 mg/Kg/dose) it was 59.8%; in data set [1] (1.0 mg/Kg/dose), 84.3%. The same compound gave a median lethal dose (LD50) at 168 h in “Acute toxicities in mice” (mouse, in vivo, ip) of 45 to 47 mg/kg.
